Measurements taken from US20250282794A1 (CURADEV PHARMA LTD, priority 2022, published 2025).

biological target: recombinant full length HPK-1 enzyme (Homo sapiens (Human), UniProt Q92918); assay: HPK-1 biochemical enzyme assay (ADP-Glo kinase inhibition); conditions: recombinant full length HPK-1 6.8 nM, 10 μM ATP, 12.5 μM MBP, 30 mins at 25° C.
Procedure, shortened: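 ADP-Glo readout of ADP formed after a 30 min, 25° C. reaction of 6.8 nM full-length HPK-1 with swine myelin basic protein (12.5 μM) and ATP (10 μM) in Tris pH 7.4 buffer with MgCl2, DTT and BSA. Ten compound concentrations tested; percent inhibition set against vehicle (0%) and no-enzyme (100%) controls gave IC50.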

Chain of recombinant full length HPK-1 enzyme (Q92918 whole entry, species assumed): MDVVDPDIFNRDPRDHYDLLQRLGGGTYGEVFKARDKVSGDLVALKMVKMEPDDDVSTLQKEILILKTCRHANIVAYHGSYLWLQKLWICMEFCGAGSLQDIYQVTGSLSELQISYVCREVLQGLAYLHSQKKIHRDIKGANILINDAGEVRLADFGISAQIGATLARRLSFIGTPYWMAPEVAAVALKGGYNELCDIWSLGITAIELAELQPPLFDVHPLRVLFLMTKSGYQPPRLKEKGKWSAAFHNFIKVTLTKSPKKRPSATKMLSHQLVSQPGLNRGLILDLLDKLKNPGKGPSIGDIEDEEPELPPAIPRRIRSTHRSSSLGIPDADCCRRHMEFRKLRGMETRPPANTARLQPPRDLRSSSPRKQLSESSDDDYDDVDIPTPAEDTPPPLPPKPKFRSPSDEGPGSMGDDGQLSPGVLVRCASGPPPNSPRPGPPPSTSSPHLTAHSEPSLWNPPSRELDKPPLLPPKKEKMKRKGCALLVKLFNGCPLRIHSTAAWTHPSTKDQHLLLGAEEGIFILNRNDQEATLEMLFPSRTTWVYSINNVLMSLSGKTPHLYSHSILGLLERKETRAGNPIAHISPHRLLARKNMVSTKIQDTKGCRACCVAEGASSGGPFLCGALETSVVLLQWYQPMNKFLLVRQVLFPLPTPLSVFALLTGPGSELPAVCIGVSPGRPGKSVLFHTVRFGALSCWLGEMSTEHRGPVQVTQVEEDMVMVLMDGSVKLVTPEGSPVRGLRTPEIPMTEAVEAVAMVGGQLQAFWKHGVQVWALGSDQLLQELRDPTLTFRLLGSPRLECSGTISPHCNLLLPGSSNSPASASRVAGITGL

Row | Structure (SMILES) | IC50
1 | COCCCN1CCN(c2ccc(NC(=O)c3c(Nc4cnc5c(c4C)NCC(C)O5)cc[nH]c3=O)cc2)CC1 (centres unmarked) [Example 406, 4-((3,8-dimethyl-2,3-dihydro-1H-pyrido[2,3-b][1,4]oxazin-7-yl)amino)-N-(4-(4-(3-methoxypropyl)piperazin-1-yl)phenyl)-2-oxo-1,2-dihydropyridine-3-carboxamide] | 10 to 100 nM
2 | Cc1c(Nc2cc[nH]c(=O)c2C(=O)Nc2ccc(N3CCN(c4ccn(C)n4)CC3)cc2)cnc2c1NCC(C)O2 (centres unmarked) [Example 407, 4-((3,8-dimethyl-2,3-dihydro-1H-pyrido[2,3-b][1,4]oxazin-7-yl)amino)-N-(4-(4-(1-methyl-1H-pyrazol-3-yl)piperazin-1-yl)phenyl)-2-oxo-1,2-dihydropyridine-3-carboxamide] | 10 to 100 nM
3 | Cc1c(Nc2cc[nH]c(=O)c2C(=O)Nc2ccc(N3CCN(C)CC3CO)cc2)cnc2c1NCCO2 (centres unmarked) [Example 408, N-(4-(2-(hydroxymethyl)-4-methylpiperazin-1-yl)phenyl)-4-((8-methyl-2,3-dihydro-1H-pyrido[2,3-b][1,4]oxazin-7-yl)amino)-2-oxo-1,2-dihydropyridine-3-carboxamide] | 10 to 100 nM
4 | Cc1c(Nc2cc[nH]c(=O)c2C(=O)Nc2cnn(CC(F)(F)F)c2)cnc2c1NCCO2 [Example 409, 4-((8-methyl-2,3-dihydro-1H-pyrido[2,3-b][1,4]oxazin-7-yl)amino)-2-oxo-N-(1-(2,2,2-trifluoroethyl)-1H-pyrazol-4-yl)-1,2-dihydropyridine-3-carboxamide] | 10 to 100 nM
5 | Cc1c(Nc2cc[nH]c(=O)c2C(=O)Nc2ccc(N3CCN(c4cnn(C)c4)CC3)cc2)cnc2c1NCCO2 [Example 410, N-(4-(4-(1-methyl-1H-pyrazol-4-yl)piperazin-1-yl)phenyl)-4-((8-methyl-2,3-dihydro-1H-pyrido[2,3-b][1,4]oxazin-7-yl)amino)-2-oxo-1,2-dihydropyridine-3-carboxamide] | 10 to 100 nM
6 | Cc1c(Nc2cc[nH]c(=O)c2C(=O)Nc2ccc(N3CCC(C4CC4)CC3)cc2)cnc2c1NCCO2 [Example 411, N-(4-(4-cyclopropylpiperidin-1-yl)phenyl)-4-((8-methyl-2,3-dihydro-1H-pyrido[2,3-b][1,4]oxazin-7-yl)amino)-2-oxo-1,2-dihydropyridine-3-carboxamide] | 10 to 100 nM
7 | Cc1c(Nc2nc[nH]c(=O)c2C(=O)Nc2ccc(N3CCN(C(C)C)CC3)cc2)cnc2c1NCCO2 [Example 412, N-(4-(4-isopropylpiperazin-1-yl)phenyl)-4-((8-methyl-2,3-dihydro-1H-pyrido[2,3-b][1,4]oxazin-7-yl)amino)-6-oxo-1,6-dihydropyrimidine-5-carboxamide] | 10 to 100 nM
8 | COCCN1CCN(c2ccc(NC(=O)c3c(Nc4cnc5c(c4C)NCCO5)nc[nH]c3=O)cc2)CC1 [Example 413, N-(4-(4-(2-methoxyethyl)-piperazin-1-yl)phenyl)-4-((8-methyl-2,3-dihydro-1H-pyrido[2,3-b][1,4]oxazin-7-yl)amino)-6-oxo-1,6-dihydropyrimidine-5-carboxamide] | 10 to 100 nM
